From patent US10640486B2, “Heteroarylcarboxamide derivatives as plasma kallikrein inhibitors” (Boehringer Ingelheim International GmbH, priority 2015, dated 2020)

Biological target: human Plasma Kallikrein (KLKB1) (Homo sapiens (Human), UniProt P03952)
Test: Inhibition of KLKB1 endpoint assay
Format: biochemical
Details: fluorogenic substrate H-Pro-Phe-Arg-AMC, 1 hr at Room Temperature, read-out: IC50 measurements for the inhibition of human Plasma Kallikrein (KLKB1)
Procedure: The ability of compounds of Formula I to inhibit plasma kallikrein (KLKB1), Factor XIIa (FXIIa), Factor XIa (FXIa), Factor Xa (FXa), Factor IIa (alpha-thrombin; FIIa), plasmin, trypsin, tissue kallikrein 1 (KLK1), Factor VIIa (FVIIa), or FVIIa complexed with Tissue Factor, phospholipids and CaCl2 (FVIIa/TF/PL/CaCl2) was determined using the following biochemical assays in assay buffer (100 mM Tris, 150 mM NaCL, adjusted to a pH of 7.8 with HCl, and containing 0.1% (w/v) BSA and 0.05% (v/v) Tween20) in the presence of 1% (v/v) DMSO:
Evaluation of the Inhibition of KLKB1 Using an Endpoint Assay
Subsequently, PPACK II (Calbiochem) was added as a stop solution to achieve a final concentration of 1 μM and fluorescence was measured using an Envision Reader (PerkinElmer) with the wavelength excitation setting of 355 nm and the wavelength emission setting of 460 nm.
The IC50 values were obtained with the aid of the inhibition of KLKB1 endpoint assay described above.

Chain of human Plasma Kallikrein (KLKB1) (P03952 391-638): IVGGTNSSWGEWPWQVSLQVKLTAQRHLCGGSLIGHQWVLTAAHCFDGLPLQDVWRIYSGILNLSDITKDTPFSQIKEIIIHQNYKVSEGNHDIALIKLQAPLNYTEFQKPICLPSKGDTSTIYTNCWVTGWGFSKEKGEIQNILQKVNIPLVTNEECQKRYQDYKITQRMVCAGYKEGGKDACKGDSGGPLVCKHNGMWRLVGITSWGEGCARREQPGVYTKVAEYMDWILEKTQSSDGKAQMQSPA
Chain of human Plasma Kallikrein (KLKB1) (P03952 20-390 partner): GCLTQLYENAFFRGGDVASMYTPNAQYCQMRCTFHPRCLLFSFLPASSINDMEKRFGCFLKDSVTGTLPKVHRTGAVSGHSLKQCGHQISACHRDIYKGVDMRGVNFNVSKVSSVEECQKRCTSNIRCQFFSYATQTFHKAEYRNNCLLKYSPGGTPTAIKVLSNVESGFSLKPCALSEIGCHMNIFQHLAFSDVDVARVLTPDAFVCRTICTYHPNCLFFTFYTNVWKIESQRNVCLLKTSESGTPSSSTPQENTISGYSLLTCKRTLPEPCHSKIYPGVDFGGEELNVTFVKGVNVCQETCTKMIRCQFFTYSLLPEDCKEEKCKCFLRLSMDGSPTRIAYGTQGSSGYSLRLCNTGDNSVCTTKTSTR

| SMILES | IC50 [nM] |
| --- | --- |
| Nc1nccc2c1CCC2NC(=O)c1cnn(Cc2ccc(CN3C[C@@H]4C[C@@H]4C3=O)cc2)c1 (single isomer, unassigned) [Example 48] | 69 |
| Nc1nccc2c1CCC2NC(=O)c1cnn(Cc2ccc(CN3C[C@@H]4C[C@@H]4C3=O)cc2)c1 (single isomer, unassigned) [Example 49] | 2 |
| Nc1nccc2c1CCC2NC(=O)c1cn(Cc2ccc(CN3C[C@@H]4C[C@@H]4C3=O)cc2)nc1C(F)(F)F (single isomer, unassigned) [Example 50] | 1 |
| Nc1nccc2c1CCC2NC(=O)c1cn(Cc2ccc(CN3C[C@@H]4C[C@@H]4C3=O)cc2)nc1C(F)(F)F (single isomer, unassigned) [Example 51] | 89 |
| Nc1nccc2c1CC[C@H]2NC(=O)c1cnn(Cc2ccc(CN3CC4CC4C3=O)c(C(F)(F)F)c2)c1 (single isomer, unassigned) [Example 52] | 41 |
| Nc1nccc2c1CC[C@H]2NC(=O)c1cnn(Cc2ccc(CN3CC4CC4C3=O)c(C(F)(F)F)c2)c1 (single isomer, unassigned) [Example 53] | 1 |
| Nc1nccc2c1CCC2NC(=O)c1cnn(Cc2ccc(CN3C[C@H]4C[C@H]4C3=O)cc2)c1 (single isomer, unassigned) [Example 54] | 46 |
| Nc1nccc2c1CCC2NC(=O)c1cnn(Cc2ccc(CN3C[C@H]4C[C@H]4C3=O)cc2)c1 (single isomer, unassigned) [Example 55] | 490 |
| Cc1cc(Cn2cc(C(=O)N[C@@H]3CCc4c3ccnc4N)nn2)ccc1N1CCN2CCCCC2C1=O (single isomer, unassigned) [Example 56] | 1200 |
| Cc1cc(Cn2cc(C(=O)N[C@@H]3CCc4c3ccnc4N)nn2)ccc1N1CCN2CCCCC2C1=O (single isomer, unassigned) [Example 57] | 6200 |
| Cc1cc(Cn2cc(C(=O)N[C@@H]3CCc4c3ccnc4N)nn2)ccc1N1CCN2CCCC2C1=O (single isomer, unassigned) [Example 58] | 1600 |
| Cc1cc(Cn2cc(C(=O)N[C@@H]3CCc4c3ccnc4N)nn2)ccc1N1CCN2CCCC2C1=O (single isomer, unassigned) [Example 59] | 2200 |
| Cc1cc(Cn2cc(C(=O)N[C@@H]3CCc4nc(N)ccc43)cn2)ccc1CN1CC2CC2C1=O (single isomer, unassigned) [Example 67] | 470 |
| Cc1cc(Cn2cc(C(=O)N[C@@H]3CCc4nc(N)ccc43)cn2)ccc1CN1CC2CC2C1=O (single isomer, unassigned) [Example 68] | 10 |
| CC(c1ccc(N2CC3CC3C2)nc1)n1cc(C(=O)N[C@@H]2CCc3c2ccnc3N)cn1 (single isomer, unassigned) [Example 72] | 10 |
| CC(c1ccc(N2CC3CC3C2)nc1)n1cc(C(=O)N[C@@H]2CCc3c2ccnc3N)cn1 (single isomer, unassigned) [Example 73] | 6 |
| Nc1ccc2c(n1)CC[C@H]2NC(=O)c1cnn(Cc2ccc(CN3C[C@H]4C[C@H]4C3=O)cc2)c1 [Example 1, 1-[4-((1R,5S)-2-Oxo-3-aza-bicyclo[3.1.0]hex-3-ylmethyl)-benzyl]-1H-pyrazole-4-carboxylic acid ((R)-2-amino-6,7-dihydro-5H-[1]pyrindin-5-yl)-amide] | 530 |
| Nc1ccc2c(n1)CCC2NC(=O)c1cnn(Cc2ccc(N3CCN4CCCC4C3)cc2)c1 (stereo not shown) [Example 2] | 2100 |
| Nc1ccc2c(n1)CC[C@H]2NC(=O)c1cnn(Cc2ccc(CN3C[C@@H]4C[C@@H]4C3=O)cc2)c1 [Example 3] | 17 |
| Nc1ccc2c(n1)CCC2NC(=O)c1cn(Cc2ccc(CN3CC4CC4C3=O)cc2)nc1C(F)(F)F (stereo not shown) [Example 4] | 63 |

| SMILES | IC50 [nM] |
| --- | --- |
| Nc1nccc2c1CCC2NC(=O)c1cnn(Cc2ccc(CN3CC4CC4C3=O)cc2)c1 (stereo not shown) [Example 5] | 10 |
| Nc1cc2c(cn1)CCC2NC(=O)c1cnn(Cc2ccc(CN3CC4CC4C3=O)cc2)c1 (stereo not shown) [Example 6] | 71 |
| Nc1ccc2c(n1)CC[C@H]2NC(=O)c1cn(Cc2ccc(CN3C[C@H]4C[C@H]4C3=O)cc2)nc1C(F)(F)F [Example 7] | 420 |
| Nc1ccc2c(n1)CC[C@H]2NC(=O)c1cn(Cc2ccc(CN3C[C@@H]4C[C@@H]4C3=O)cc2)nc1C(F)(F)F [Example 8] | 14 |
| Nc1ccc2c(n1)CCC2NC(=O)c1cn(Cc2ccc(N3CCN4CCCCC4C3=O)cc2)nn1 (stereo not shown) [Example 9] | 3200 |
| Nc1ccc2c(n1)CCC2NC(=O)c1cn(Cc2ccc(Cn3cc4c(n3)CCOC4)cc2)nn1 (stereo not shown) [Example 10] | 560 |
| Nc1ccc2c(n1)CCC2NC(=O)c1cn(Cc2ccc(CN3CCN4C(=O)CCCC4C3)cc2)nn1 (stereo not shown) [Example 11] | > 10000 |
| Nc1nccc2c1C(NC(=O)c1cn(Cc3ccc(N4CCN5CCCCC5C4=O)cc3)nn1)CC2 (stereo not shown) [Example 12] | > 10000 |
| Nc1cc2c(cn1)C(NC(=O)c1cn(Cc3ccc(N4CCN5CCCCC5C4=O)cc3)nn1)CC2 (stereo not shown) [Example 13] | > 10000 |
| Nc1ccc2c(n1)CCC2NC(=O)c1cn(Cc2ccc(CN3CCN4CCCC4C3=O)cc2)nn1 (stereo not shown) [Example 14] | 5900 |
| Nc1ccc2c(n1)CCC2NC(=O)c1cnn(Cc2ccc(CN3CC4CC4C3=O)cc2)c1 (stereo not shown) [Example 15] | 81 |
| Cc1nn(Cc2ccc(CN3CC4CC4C3=O)cc2)cc1C(=O)NC1CCc2nc(N)ccc21 (stereo not shown) [Example 16] | 85 |
| Cc1cc(N)nc2c1C(NC(=O)c1cnn(Cc3ccc(CN4CC5CC5C4=O)cc3)c1)CC2 (stereo not shown) [Example 17] | 42 |
| Cc1cc(Cn2cc(C(=O)NC3CCc4nc(N)ccc43)nn2)ccc1N1CCN2CCCCC2C1=O (stereo not shown) [Example 18] | 1200 |
| Cc1cc(N)nc2c1C(NC(=O)c1cn(Cc3ccc(N4CCN5CCCCC5C4=O)cc3)nn1)CC2 (stereo not shown) [Example 19] | 2600 |
| Nc1ccc2c(n1)CC[C@H]2NC(=O)c1cnn(Cc2ccc(CN3CC4CC4C3=O)c(C(F)(F)F)c2)c1 (stereo partly shown) [Example 22] | 19 |
| Nc1nccc2c1CC[C@H]2NC(=O)c1cnn(Cc2ccc(CN3CC4CC4CC3=O)cc2)c1 (stereo partly shown) [Example 23] | 2 |
| Nc1cc(C(F)(F)F)c2c(n1)CCC2NC(=O)c1cnn(Cc2ccc(CN3CC4CC4C3=O)cc2)c1 (stereo not shown) [Example 24] | 3300 |
| Nc1ccc2c(n1)CCC2NC(=O)c1cn(Cc2ccc(-n3cc4c(n3)CCOC4)cc2)nn1 (stereo not shown) [Example 27] | > 10000 |
| Nc1ccc2c(n1)CCC2NC(=O)c1cn(Cc2ccc(C3CC4CCCN4C3=O)cc2)nn1 (stereo not shown) [Example 29] | 2200 |

| SMILES | IC50 [nM] |
| --- | --- |
| Nc1ccc2c(n1)CC[C@H]2NC(=O)c1cn(Cc2ccc(N3CC4CC4C3)nc2)nn1 (stereo partly shown) [Example 32] | 24 |
| Nc1nccc2c1CC[C@H]2NC(=O)c1cn(Cc2ccc(N3CC4CC4C3)nc2)nn1 (stereo partly shown) [Example 33] | 2 |
| Nc1nccc2c1CC[C@H]2NC(=O)c1cn(Cc2ccc(N3CC(=O)N4CCCC4C3)nc2)nn1 (stereo partly shown) [Example 34] | 390 |
| Nc1nccc2c1CC[C@H]2NC(=O)c1cn(Cc2ccc(N3CCN4C(=O)COCC4C3)nc2)nn1 (stereo partly shown) [Example 35] | 600 |
| Nc1nccc2c1CC[C@H]2NC(=O)c1cnn(Cc2ccc(N3CC4CC4C3)nc2C(F)(F)F)c1 (stereo partly shown) [Example 36] | 1 |
| Nc1ccc2c(n1)CC[C@H]2NC(=O)c1cnn(Cc2ccc(N3CC4CC4C3)nc2C(F)(F)F)c1 (stereo partly shown) [Example 37] | 8 |
| Nc1nccc2c1CC[C@H]2NC(=O)c1cn(Cc2ccc(N3CC4CC4C3)nc2C(F)(F)F)nn1 (stereo partly shown) [Example 38] | 1 |
| Nc1ccc2c(n1)CC[C@H]2NC(=O)c1cn(Cc2ccc(N3CC4CC4C3)nc2C(F)(F)F)nn1 (stereo partly shown) [Example 39] | 14 |
| Nc1ccc2c(n1)CC[C@H]2NC(=O)c1cnn(Cc2cnc(N3CC4CC4C3)cc2C(F)(F)F)c1 (stereo partly shown) [Example 40] | 9 |
| Nc1nccc2c1CC[C@H]2NC(=O)c1cnn(Cc2cnc(N3CC4CC4C3)cc2C(F)(F)F)c1 (stereo partly shown) [Example 41] | 1 |
| Nc1nccc2c1CC[C@H]2NC(=O)c1cn(Cc2cnc(N3CC4CC4C3)cc2C(F)(F)F)nn1 (stereo partly shown) [Example 42] | 1 |
| Nc1ccc2c(n1)CC[C@H]2NC(=O)c1cn(Cc2cnc(N3CC4CC4C3)cc2C(F)(F)F)nn1 (stereo partly shown) [Example 43] | 13 |
| Cc1cc(N2CC3CC3C2)ncc1Cn1cc(C(=O)N[C@@H]2CCc3nc(N)ccc32)cn1 (stereo partly shown) [Example 44] | 30 |
| Cc1cc(N2CC3CC3C2)ncc1Cn1cc(C(=O)N[C@@H]2CCc3c2ccnc3N)cn1 (stereo partly shown) [Example 45] | 4 |
| Cc1cc(N2CC3CC3C2)ncc1Cn1cc(C(=O)N[C@@H]2CCc3nc(N)ccc32)nn1 (stereo partly shown) [Example 46] | 38 |
| Cc1cc(N2CC3CC3C2)ncc1Cn1cc(C(=O)N[C@@H]2CCc3c2ccnc3N)nn1 (stereo partly shown) [Example 47] | 4 |
| Nc1ccc2c(n1)CCC2NC(=O)c1cn(Cc2ccc(CN3CC4CCCN4C3=O)cc2)nn1 (stereo not shown) [Example 61, 1-[4-(3-Oxo-tetrahydro-pyrrolo[1,2-c]imidazol-2-ylmethyl)-benzyl]-1H-[1,2,3]triazole-4-carboxylic acid (2-amino-6,7-dihydro-5H-[1]pyrindin-5-yl)-amide] | 340 |
| Nc1ccc2c(n1)CCC2NC(=O)c1cn(Cc2ccc(CN3CC4CC4C3=O)cc2)nn1 (stereo not shown) [Example 62, 1-[4-(2-Oxo-3-aza-bicyclo[3.1.0]hex-3-ylmethyl)-benzyl]-1H-[1,2,3]triazole-4-carboxylicacid (2-amino-6,7-dihydro-5H-[1]pyrindin-5-yl)-amide] | 410 |
